Measurements published in ChEMBL document CHEMBL5528064, “Invention of MK-7845, a SARS-CoV-2 3CL Protease Inhibitor Employing a Novel Difluorinated Glutamine Mimic” (J Med Chem, 2024).

Tests used:
[1] = Apparent permeability in MDCK cells; format: ADME, cell-based, Canis lupus familiaris; conditions: dog
[2] = Oral bioavailability in rat; format: ADME, organism-based; conditions: in vivo
[3] = MRT in dog at 3 mg/kg, po or 1 mg/kg, iv measured upto 24 hrs by LC-MS analysis; format: ADME, organism-based, Canis lupus familiaris; conditions: in vivo
[4] = Oral bioavailability in rat at 3 mg/kg measured upto 24 hrs by LC-MS analysis; format: ADME, organism-based; conditions: in vivo
[5] = target: Replicase polyprotein 1ab (Severe acute respiratory syndrome coronavirus 2, UniProt P0DTD1); assay: Inhibition of wild type recombinant SARS-CoV-2 3CLpro (1 to 306 residues) expressed in Escherichia coli (DE3) competent cells using CP488-ESATLQSGLRKAK-(CPQ2)-NH2 as substrate preincubated for 30 mins followed by substrate addition and measured after 4 hrs by FRET assay
[6] = target: T1, Nuclear receptor subfamily 1 group I member 2 (Homo sapiens, UniProt O75469); assay: Activation of PXR (unknown origin); format: toxicity
T1 sequence (O75469 whole entry): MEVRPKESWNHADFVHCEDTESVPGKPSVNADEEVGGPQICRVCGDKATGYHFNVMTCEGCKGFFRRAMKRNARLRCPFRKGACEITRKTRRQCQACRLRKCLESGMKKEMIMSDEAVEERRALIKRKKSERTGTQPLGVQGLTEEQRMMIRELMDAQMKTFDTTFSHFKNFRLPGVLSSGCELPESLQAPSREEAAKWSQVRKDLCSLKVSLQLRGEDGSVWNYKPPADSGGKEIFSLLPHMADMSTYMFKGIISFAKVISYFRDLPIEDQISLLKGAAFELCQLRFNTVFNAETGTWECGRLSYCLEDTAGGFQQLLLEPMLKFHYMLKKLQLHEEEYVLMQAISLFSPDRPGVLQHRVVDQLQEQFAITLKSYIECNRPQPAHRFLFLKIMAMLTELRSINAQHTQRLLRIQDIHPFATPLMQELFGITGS

[7] = target: CYP3A4 (Homo sapiens, UniProt P08684); assay: Ratio of IC50 for time dependent inhibition of CYP3A4 in human liver microsomes incubated for 30 mins in presence of NADPH to IC50 for time dependent inhibition of CYP3A4 in human liver microsomes incubated for 30 mins in absence of NADPH; set-up: species or system Microsome; conditions: read-out: Ratio IC50
[8] = Oral bioavailability in Wistar-Han rat at 2 mg/kg; format: ADME, organism-based; conditions: in vivo

CYP3A4, sequence (P08684 whole entry): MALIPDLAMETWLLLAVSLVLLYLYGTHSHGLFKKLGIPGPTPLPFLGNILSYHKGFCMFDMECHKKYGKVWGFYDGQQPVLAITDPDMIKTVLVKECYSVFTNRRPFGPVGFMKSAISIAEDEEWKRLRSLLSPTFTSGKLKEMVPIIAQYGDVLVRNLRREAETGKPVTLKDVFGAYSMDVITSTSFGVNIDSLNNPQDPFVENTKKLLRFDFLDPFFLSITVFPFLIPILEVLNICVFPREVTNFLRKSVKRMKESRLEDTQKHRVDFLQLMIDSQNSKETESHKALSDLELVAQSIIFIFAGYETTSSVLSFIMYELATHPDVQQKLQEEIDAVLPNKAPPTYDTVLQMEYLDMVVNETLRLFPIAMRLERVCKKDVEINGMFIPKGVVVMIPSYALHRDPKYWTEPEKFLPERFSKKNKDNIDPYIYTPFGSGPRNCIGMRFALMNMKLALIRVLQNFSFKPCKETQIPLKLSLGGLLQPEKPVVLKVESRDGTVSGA

CC(C)(C)NC(=O)N[C@H](C(=O)N1C[C@H]2[C@@H]([C@H]1C(=O)N[C@@H](C[C@@H]1CCNC1=O)C(=O)C(N)=O)C2(C)C)C(C)(C)C
Papp [1]: < 1.13 ×10⁻⁶ cm/s
bioavailability [2]: 0.2%

CNC(=O)C(=O)[C@H](CCC(C)(F)F)NC(=O)[C@@H]1C[C@H](C(F)(F)F)CCN1C(=O)[C@@H](NC(=O)OC)C(C)(C)C
MRT [3]: 3.1 h
bioavailability [4]: 63%

COC(=O)N[C@H](C(=O)N1C[C@H]2[C@@H]([C@H]1C(=O)N[C@@H](CCC(C)(F)F)C(=O)C(=O)NC1CC1)C21CCOCC1)C(C)(C)C
MRT [3]: 2.4 h
bioavailability [4]: 40%

COC(=O)N[C@H](C(=O)N1CC2(C[C@H]1C(=O)N[C@@H](CCC(C)(F)F)C(=O)C(=O)NC1CC1)CC2(F)F)C(C)(C)C (stereo partly drawn)
MRT [3]: 3.2 h

COC(=O)N[C@H](C(=O)N1CC2(CCC(F)(F)CC2)C[C@H]1C(=O)N[C@@H](CCC(C)(F)F)C(=O)C(=O)NC1CC1)C(C)(C)C
IC50 [5]: 270 nM

CC(F)(F)CC[C@H](NC(=O)[C@@H]1CC2(CCCCC2)CN1C(=O)c1cc2ccccc2[nH]1)C(=O)C(=O)NC1CC1
IC50 [5]: 64 nM

COC(=O)N[C@H](C(=O)N1CC2(CCCCC2)C[C@H]1C(=O)N[C@@H](CCC(F)(F)F)C(=O)C(=O)NC1CC1)C(C)(C)C
IC50 [5]: 382 nM

COC(=O)N[C@H](C(=O)N1CC2(CCCCC2)C[C@H]1C(=O)N[C@@H](CCC(F)F)C(=O)C(=O)NC1CC1)C(C)(C)C
IC50 [5]: 123 nM

COC(=O)N[C@H](C(=O)N1CC2(CCCCC2)C[C@H]1C(=O)N[C@@H](CCC(C)(F)F)C(=O)C(N)=O)C(C)(C)C
IC50 [5]: 25 nM
EC50 [6]: > 30 µM
IC50 shift at 0.5 h [7]: > 1

COC(=O)N[C@H](C(=O)N1CC2(CCCCC2)C[C@H]1C(=O)N[C@@H](CCC(C)(F)F)C(=O)C(=O)NC1CC1)C(C)(C)C
IC50 [5]: 11 nM
EC50 [6]: 6.8 µM
MRT [3]: 0.8 h
bioavailability [4]: 26%
IC50 shift at 0.5 h [7]: > 1.3

CC(C)C[C@H](NC(=O)OCc1ccccc1)C(=O)N[C@@H](C[C@@H]1CCNC1=O)C(O)S(=O)(=O)[O-].[Na+] (stereo partly drawn)
bioavailability [2]: 3%

COC(=O)N[C@H](C(=O)N1CC2(CCCCC2)C[C@H]1C(=O)N[C@@H](CCC(C)(F)F)C(=O)C(=O)NC1CCCCC1)C(C)(C)C
IC50 [5]: 77 nM
EC50 [6]: 2.3 µM
IC50 shift at 0.5 h [7]: > 6

CC(F)(F)CC[C@H](NC(=O)[C@@H]1CC2(CCCCC2)CN1C(=O)[C@@H](NC(=O)OCc1ccccc1)C1CCCCC1)C(=O)C(=O)NC1CC1
IC50 [5]: 16 nM

COC(=O)N[C@H](C(=O)N1CC2(CCCCC2)C[C@H]1C(=O)N[C@@H](CCC(C)(F)F)C(=O)C(=O)NCc1ccncc1)C(C)(C)C
IC50 [5]: 30 nM
EC50 [6]: > 30 µM
IC50 shift at 0.5 h [7]: ~1

COC(=O)N[C@H](C(=O)N1C[C@@H]2CCC[C@@H]2[C@H]1C(=O)N[C@@H](CC[C@@H](C)F)C(=O)C(=O)NC1CC1)C(C)(C)C
IC50 [5]: 11 nM

COC(=O)N[C@H](C(=O)N1C[C@@H]2CCC[C@@H]2[C@H]1C(=O)N[C@@H](CC[C@H](C)F)C(=O)C(=O)NC1CC1)C(C)(C)C
IC50 [5]: 23 nM

COC(=O)N[C@H](C(=O)N1CC2(CCCCC2)C[C@H]1C(=O)N[C@@H](CC1CC1(F)F)C(=O)C(=O)NC1CC1)C(C)(C)C (stereo partly drawn)
IC50 [5]: 355 nM

COC(=O)N[C@H](C(=O)N1C[C@@H]2CCC[C@@H]2[C@H]1C(=O)N[C@@H](CCC(C)(F)F)C(=O)C(=O)NC1CC1)C(C)(C)C
MRT [3]: 2.7 h
bioavailability [4]: 47%

COC(=O)N[C@H](C(=O)N1CC[C@@H](C(F)(F)F)C[C@H]1C(=O)N[C@@H](CCC(C)(F)F)C(=O)C(=O)NC1CC1)C(C)(C)C
MRT [3]: 8.6 h
bioavailability [4]: 40%

COc1cccc2[nH]c(C(=O)N[C@@H](CC(C)C)C(=O)N[C@@H](C[C@@H]3CCNC3=O)C(=O)CO)cc12 [PF-00835231]
bioavailability [8]: < 2%

CNC(=O)C(=O)[C@H](CCC(C)(F)F)NC(=O)[C@@H]1CC2(CCCCC2)CN1C(=O)[C@@H](NC(=O)OC)C(C)(C)C
EC50 [6]: 5.8 µM
IC50 shift at 0.5 h [7]: > 1.6

COC(=O)N[C@H](C(=O)N1C[C@@H]2CCC[C@@H]2[C@H]1C(=O)N[C@@H](CCC(C)(C)F)C(=O)C(=O)NC1CC1)C(C)(C)C
IC50 [5]: 26 nM

COC(=O)N[C@H](C(=O)N1CC2(CCOCC2)C[C@H]1C(=O)N[C@@H](CCC(C)(F)F)C(=O)C(=O)NC1CC1)C(C)(C)C
IC50 [5]: 297 nM

CC(F)(F)CC[C@H](NC(=O)[C@@H]1[C@@H]2[C@H](CN1C(=O)[C@@H](NC(=O)NC1(CS(=O)(=O)C(C)(C)C)CCCCC1)C(C)(C)C)C2(C)C)C(=O)C(=O)NC1CC1
IC50 [5]: 129 nM

COC(=O)N[C@H](C(=O)N1CC2(CCCCC2)C[C@H]1C(=O)N[C@@H](CCC(C)(F)F)C(=O)C(=O)NCc1ccccc1)C(C)(C)C
EC50 [6]: 3.9 µM
IC50 shift at 0.5 h [7]: > 3.1

CC(C)(C)CC(=O)N1CC2(CCCCC2)C[C@H]1C(=O)N[C@@H](CCC(C)(F)F)C(=O)C(=O)NC1CC1
IC50 [5]: 890 nM

CC(F)(F)CC[C@H](NC(=O)[C@@H]1CC2(CCCCC2)CN1C(=O)C(O)c1cccc(F)c1)C(=O)C(=O)NC1CC1 (stereo partly drawn)
IC50 [5]: 56 nM

CCCC[C@H](NC(=O)[C@@H]1CC2(CCCCC2)CN1C(=O)[C@@H](NC(=O)OC)C(C)(C)C)C(=O)C(=O)NC1CC1
IC50 [5]: 715 nM

COC(=O)N[C@H](C(=O)N1CCC2(CC2)C[C@H]1C(=O)N[C@@H](CCC(C)(F)F)C(=O)C(=O)NC1CC1)C(C)(C)C
MRT [3]: 3.6 h
bioavailability [4]: 60%
Papp [1]: 16 ×10⁻⁶ cm/s
